The source of these data is publication PMC5540490, “Plasma concentrations of caspofungin in a critically ill patient with morbid obesity” (Critical Care, 2017).

Read-outs that look alike come from different tables or passages of the source.

Data set [1] in a line: Plasma/serum concentrations of caspofungin in a critically ill patient with morbid obesity. It counts as in vivo. Particulars: male, human, plasma, 100 mg/day; for Cmax: read-out: Cpeak. The source says: The aim of the study was to describe the pharmacokinetic behaviour of caspofungin in a critically ill patient with morbid obesity who received doses of caspofungin higher than labelled doses.
(§1) A morbidly obese person (BMI = 50 kg/m^2) was admitted to our ICU after surgical treatment of anastomotic leak in the postoperative period of elective laparoscopic bariatric surgery. The patient was in septic shock, with Candida multicolonization and other risk factors of invasive candidiasis. We decided to start antimicrobial treatment, including meropenem, linezolid and caspofungin. With the intention of maximizing the potential effectiveness of antifungal treatment, caspofungin at a dose of 100 mg/day was chosen. The caspofungin dose was calculated using a population pharmacokinetic model. Target AUC/MIC was set at 860 and therefore AUC values above 107 mg*h/L were necessary assuming MIC = 0.125 mg/L [2]. […] The manufacturer recommends caspofungin dose reduction when AUC values are above 210 mg*h/L and, accordingly, drug exposure was considered safe.

A short description of data set [2]: Clinical course and tolerability of caspofungin treatment in the patient. Type of data set: in vivo, human. Particulars: 100 mg/day for 14 days; one patient.
Source text: as §1

The mark [3] stands for this setting: three days later, one morbidly obese ICU patient.

In the case of `CC[C@H](C)C[C@H](C)CCCCCCCCC(=O)N[C@H]1C[C@@H](O)[C@@H](NCCN)NC(=O)[C@@H]2[C@@H](O)CCN2C(=O)[C@H]([C@H](O)CCN)NC(=O)[C@H]([C@H](O)[C@@H](O)c2ccc(O)cc2)NC(=O)[C@@H]2C[C@@H](O)CN2C(=O)[C@H]([C@@H](C)O)NC1=O` [caspofungin], the AUC in data set [1] (after the first dose, one morbidly obese ICU patient) came to 116 µg·h/mL; in data set [1] (setting [3]), 140 µg·h/mL. Besides, the Cmax in data set [1] (after the first dose, one morbidly obese ICU patient (BMI 50 kg/m^2) in septic shock) came to 4510 ng/mL; in data set [1] (setting [3]), 5970 ng/mL. Moreover, the level at 72 h in data set [1] (three days later, one morbidly obese ICU patient, read-out: Ctrough) came out at 1760 ng/mL. Further, the “Adverse effects related to the drug” value in data set [2] is on record as “without any adverse effects”.

As a reminder, the AUC is the area under the concentration-time curve, a measure of exposure. Lower therefore signals less exposure.
